Read-outs that look alike come from different tables or passages of the source.
What was measured:
[1] = molecular target: T1, Leishmania donovani DNA topoisomerase IB enzyme (LdTopIB) (Leishmania donovani, UniProt A0A3Q8IHS4+Q8WQM6); conditions: earlier work of the group; cited from earlier work
[2] = tested on: L. infantum promastigotes; assay: Toxicity towards L. infantum promastigotes; assay type: cell-based, Leishmania infantum
From the text: (§1) The experimental procedures employed to assess the toxicity of acids 1 and 2 towards L. infantum and L. donovani are the same as the ones previously described. CPT was used as the control drug.

[3] = tested on: LdTopIB CPT^R (LdTopIL^1−561/S175end); assay: Inhibition of CPT-resistant doubly truncated LdTopIB; assay type: biochemical, Leishmania donovani; conditions: 100 µM, 4 min at 25 °C, judged by supercoiled DNA band
Experimental: Figure 4 Methoxylated fatty acids inhibit LdTopIB by a CPT-independent mechanism. […] Samples were incubated for 4 min at 25 °C, stopped with 1% SDS and digested for one extra hour at 37 °C in the presence of 1 mg/mL proteinase K. DNA was extracted with one volume of phenol-chloroform and samples were run on a 1% agarose gel containing ethidium bromide to a final concentration of 40 μg/mL in order to separate supercoiled and relaxed DNA. The nicked band corresponds to the stabilized cleavage complexes. The results are representative of three independent trials.

[4] = molecular target: T1, Leishmania donovani DNA topoisomerase IB enzyme (LdTopIB); assay: Inhibition of the relaxation activity of recombinant LdTopIB (plasmid DNA relaxation assay); assay type: biochemical; conditions: 30 min at 37 °C, 1.56–100 µM
Experimental: (§2) One unit of recombinant LdTopIB was assayed in a plasmid DNA relaxation assay for 30 min at 37 °C in the presence of 1.56–100 µM of either acids 1 or 2. Reaction products were resolved in agarose gel and subsequently visualized by ethidium bromide staining. The relative position of the negatively supercoiled DNA substrate is indicated by Sc, R is the relaxed DNA, whereas the ladder of relaxed DNA topoisomer bands is shown in between. Reactions were stopped with a mixture of 1% SDS and 6.1 µg of proteinase K. Lane 1 contains 0.5 µg of pSK plasmid DNA and lane 2, indicated by a 0, is 10% DMSO.
(§3) The LdTopIB and hTopIB inhibitory bioassays were performed as previously described. A brief description of the experimental procedure can be found as the header of Figure 1 and Figure 3.

[5] = tested on: Murine Macrophages BALB/c; assay: Toxicity towards murine macrophages; assay type: cell-based; conditions: Mus musculus, Macrophage
From the text: Murine macrophages were chosen as reference for this study since Leishmania spp. normally infects macrophages and in macrophages is where Leishmania promastigotes are transformed into Leishmania amastigotes. […] The experimental procedures employed to assess the toxicity of acids 1 and 2 towards L. infantum and L. donovani are the same as the ones previously described. CPT was used as the control drug.

[6] = molecular target: T2, human topoisomerase IB enzyme (hTopIB) (Homo sapiens, UniProt P11387); assay: Inhibition of the relaxation activity of hTopIB (plasmid DNA relaxation assay); assay type: biochemical; conditions: 30 min at 37 °C, 1–100 µM
T2 sequence (P11387 1-765): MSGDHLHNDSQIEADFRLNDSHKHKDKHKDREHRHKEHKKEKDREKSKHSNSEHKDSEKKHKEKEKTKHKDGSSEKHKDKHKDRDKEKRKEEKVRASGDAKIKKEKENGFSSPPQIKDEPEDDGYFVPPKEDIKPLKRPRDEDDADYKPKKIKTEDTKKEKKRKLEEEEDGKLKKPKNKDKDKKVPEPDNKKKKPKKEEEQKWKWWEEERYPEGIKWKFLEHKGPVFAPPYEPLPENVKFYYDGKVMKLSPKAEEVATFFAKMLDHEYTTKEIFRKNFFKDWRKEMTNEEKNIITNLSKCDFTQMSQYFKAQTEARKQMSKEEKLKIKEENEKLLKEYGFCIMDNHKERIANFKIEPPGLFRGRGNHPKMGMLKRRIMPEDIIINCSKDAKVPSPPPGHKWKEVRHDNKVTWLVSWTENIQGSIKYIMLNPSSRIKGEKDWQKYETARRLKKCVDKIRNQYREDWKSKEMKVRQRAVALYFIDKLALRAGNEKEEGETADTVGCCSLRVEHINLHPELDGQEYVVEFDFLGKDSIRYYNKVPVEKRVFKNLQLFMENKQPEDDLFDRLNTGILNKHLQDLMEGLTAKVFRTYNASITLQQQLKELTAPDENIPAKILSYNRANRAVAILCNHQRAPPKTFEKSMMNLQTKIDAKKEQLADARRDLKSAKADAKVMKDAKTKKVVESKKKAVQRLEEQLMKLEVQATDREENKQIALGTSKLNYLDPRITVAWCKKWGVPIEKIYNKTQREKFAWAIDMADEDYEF
Experimental: as §2, with “hTopIB” for “of recombinant LdTopIB”, “1–100” for “1.56–100”
as §3

[7] = tested on: L. donovani promastigotes; assay: Toxicity towards L. donovani promastigotes; assay type: cell-based; conditions: Leishmania donovani
From the text: as §1

[8] = relaxation activity, read-out: LdTopIB EC50

T1 sequence (A0A3Q8IHS4 entry or part of it): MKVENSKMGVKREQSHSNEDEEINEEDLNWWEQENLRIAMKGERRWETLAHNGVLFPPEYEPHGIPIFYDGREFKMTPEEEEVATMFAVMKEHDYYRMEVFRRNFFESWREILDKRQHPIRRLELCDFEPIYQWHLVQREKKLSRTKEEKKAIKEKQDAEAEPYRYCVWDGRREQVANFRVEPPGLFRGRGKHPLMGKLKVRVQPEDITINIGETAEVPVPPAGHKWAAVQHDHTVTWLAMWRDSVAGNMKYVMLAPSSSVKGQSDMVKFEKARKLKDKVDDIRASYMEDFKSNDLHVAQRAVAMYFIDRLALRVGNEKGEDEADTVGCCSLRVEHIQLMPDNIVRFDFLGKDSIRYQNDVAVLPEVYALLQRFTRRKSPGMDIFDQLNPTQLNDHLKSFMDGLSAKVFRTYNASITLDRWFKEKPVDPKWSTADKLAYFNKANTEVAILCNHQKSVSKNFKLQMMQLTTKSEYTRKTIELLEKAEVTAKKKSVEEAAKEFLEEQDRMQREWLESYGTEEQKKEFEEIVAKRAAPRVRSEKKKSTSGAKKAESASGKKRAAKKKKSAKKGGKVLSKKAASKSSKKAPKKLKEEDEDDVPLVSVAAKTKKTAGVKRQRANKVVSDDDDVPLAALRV
T1 sequence (Q8WQM6 entry or part of it): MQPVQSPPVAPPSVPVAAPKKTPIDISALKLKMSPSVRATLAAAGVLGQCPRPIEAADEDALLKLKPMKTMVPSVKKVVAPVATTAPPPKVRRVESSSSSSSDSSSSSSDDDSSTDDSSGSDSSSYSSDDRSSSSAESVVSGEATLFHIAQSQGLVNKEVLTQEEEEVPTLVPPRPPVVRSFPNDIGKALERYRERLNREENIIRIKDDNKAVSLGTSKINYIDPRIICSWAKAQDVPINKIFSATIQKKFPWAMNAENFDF

Compound	EC50 [1] [µM]	EC50 [2] [µM]	EC50 ([2]; Leishmania infantum) [µM]	Inhibition of LdTopIB CPT^R [3]	EC50 [4, 8] [µM]	IC50 [5] [µM]	EC50 [6] [µM]	IC50 ([7]; footnote a, in the column L. infantum EC50, read-out: IC50 against L. donovani promastigotes) [µM]	EC50 ([7]; promastigotes) [µM]	EC50 ([4]; LdTopIB EC50, relaxation activity) [µM]
CCCCCCCCCCC#CCCCC(OC)C(=O)O (racemic) [(±)-2-OMe-6-heptadecynoic acid]	17 ± 1									
CCCCCCCCCC/C=C\CCCC(OC)C(=O)O (racemic) [(±)-2-methoxy-6Z-heptadecenoic acid]	41 ± 6									
CCCCCCCCCC/C=C\CC/C=C\CCC(OC)C(=O)O (racemic) [compound 1, (5Z,9Z)-(±)-2-methoxy-5,9-eicosadienoic acid]		260 ± 20	240 to 260	completely inhibit	31 ± 2	110 ± 10	> 100			
CCCCCCCCCCC#CCCC#CCCC(OC)C(=O)O (racemic) [compound 2, (±)-2-methoxy-5,9-eicosadiynoic acid]		240 ± 10	240 to 260	completely inhibit	22 ± 1	90 ± 20	> 100			
CCCCCCCCCCCCCC#CCCCC(OC)C(=O)O (racemic) [compound 12, (±)-2-methoxy-6-icosynoic acid]					53 ± 3	> 100	> 100	100 ± 10	100	
CC[C@@]1(O)C(=O)OCc2c1cc1n(c2=O)Cc2cc3ccccc3nc2-1 [CPT, Camptothecin, reference compound]			1.1 ± 0.1	not able to inhibit		0.6 ± 0.1				0.7 ± 0.1

Source: paper PMC3826128 (Marine Drugs, 2013)
